Data: US12692254B2, “Benzimidazole inhibitors of PAD enzymes” (BRISTOL-MYERS SQUIBB COMPANY, priority 2018, dated 2026)

molecular target: human PAD4 (hPAD4) (Homo sapiens, UniProt Q9UM07); test: RFMS human PAD4 functional assay (rapid-fire mass spectrum); type: biochemical; settings: 5 nM hPAD4 enzyme, 250 μM BAEE, 50 μM Calcium; 30 min preincubation, 90 min reaction at 37° C.
Procedure, shortened: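 PAD4 (10 nM) preincubated 30 min with compound (top final 50 μM), then BAEE substrate added in pH 7.5 HEPES buffer with DTT, 50 μM calcium, TPEN; 90 min at 37° C. After TCA quench, citrulline derivatized with phenyl glyoxal (4 mM final, 30 min, 37° C) and quantified by RapidFire MS against internal standard.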

human PAD4 (hPAD4), sequence (Q9UM07 whole entry): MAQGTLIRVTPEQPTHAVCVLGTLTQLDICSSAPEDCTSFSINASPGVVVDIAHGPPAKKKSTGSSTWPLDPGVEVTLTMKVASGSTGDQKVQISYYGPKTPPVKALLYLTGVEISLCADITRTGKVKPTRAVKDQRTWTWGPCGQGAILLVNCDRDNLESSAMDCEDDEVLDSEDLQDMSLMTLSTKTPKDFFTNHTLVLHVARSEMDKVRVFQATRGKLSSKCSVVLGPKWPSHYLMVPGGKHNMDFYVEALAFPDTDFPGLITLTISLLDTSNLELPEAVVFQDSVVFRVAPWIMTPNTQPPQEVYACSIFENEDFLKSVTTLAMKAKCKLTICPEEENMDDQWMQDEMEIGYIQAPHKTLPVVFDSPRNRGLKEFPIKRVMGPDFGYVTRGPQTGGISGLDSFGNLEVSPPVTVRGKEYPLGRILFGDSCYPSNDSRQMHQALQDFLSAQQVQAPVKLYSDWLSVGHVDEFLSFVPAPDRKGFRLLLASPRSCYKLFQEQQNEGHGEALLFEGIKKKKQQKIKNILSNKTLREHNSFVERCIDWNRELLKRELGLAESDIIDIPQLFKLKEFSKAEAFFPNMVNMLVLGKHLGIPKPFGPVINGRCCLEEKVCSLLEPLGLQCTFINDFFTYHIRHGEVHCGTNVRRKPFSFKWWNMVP

| SMILES | IC50 [nM] |
| --- | --- |
| COc1cc(C(=O)N2C[C@H](N)C[C@@H](F)C2)cc2nc(-c3cc4cccnc4n3CC3CC3)n(Cc3cnn(C)c3C)c12 [Example 504, (3R,5R)-1-{2-[1-(cyclopropylmethyl)-1H-pyrrolo[2,3-b]pyridin-2-yl]-l-[(1,5-dimethyl-1H-pyrazol-4-yl)methyl]-7-methoxy-1H-1,3-benzodiazole-5-carbonyl}-5-fluoropiperidin-3-amine] | 158 |
| COc1cc(C(=O)N2C[C@H](N)C[C@@H](F)C2)cc2nc(-c3cc4ccccc4n3CC3CC3)n(Cc3cnn(C)c3C)c12 [Example 506, (3R,5R)-1-{2-[1-(cyclopropylmethyl)-1H-indol-2-yl]-1-[(1,5-dimethyl-1H-pyrazol-4-yl)methyl]-7-methoxy-1H-1,3-benzodiazole-5-carbonyl}-5-fluoropiperidin-3-amine] | 225 |
| COc1cc(C(=O)N2C[C@H](N)C[C@@H](F)C2)cc2nc(-c3cc4cccnc4n3CC3CC3)n(Cc3cn(C)nc3C)c12 [Example 507, (3R,5R)-1-{2-[1-(cyclopropylmethyl)-1H-pyrrolo[2,3-b]pyridin-2-yl]-1-[(1,3-dimethyl-1H-pyrazol-4-yl)methyl]-7-methoxy-1H-1,3-benzodiazole-5-carbonyl}-5-fluoropiperidin-3-amine] | 256 |
| COc1cc(C(=O)N2C[C@H](N)C[C@@H](F)C2)cc2nc(-c3cc4ccccc4n3CC3CC3)n(Cc3cn(C)nc3C)c12 [Example 512, (3R,5R)-1-{2-[1-(cyclopropylmethyl)-1H-indol-2-yl]-1-[(1,3-dimethyl-1H-pyrazol-4-yl)methyl]-7-methoxy-1H-1,3-benzodiazole-5-carbonyl}-5-fluoropiperidin-3-amine] | 373 |
| COc1cc(C(=O)N2C[C@H](N)C[C@@H](F)C2)cc2nc(-c3cc4cccnc4n3CC3CC3)n(Cc3cc(C)nn3C)c12 [Example 515, (3R,5R)-1-{2-[1-(cyclopropylmethyl)-1H-pyrrolo[2,3-b]pyridin-2-yl]-1-[(1,3-dimethyl-1H-pyrazol-5-yl)methyl]-7-methoxy-1H-1,3-benzodiazole-5-carbonyl}-5-fluoropiperidin-3-amine] | 501 |
| COc1cc(C(=O)N2C[C@H](N)C[C@@H](F)C2)cc2nc(-c3cc4cccnc4n3CC3CC3)n(Cc3ccn(C)n3)c12 [Example 516, (3R,5R)-1-{2-[1-(cyclopropylmethyl)-1H-pyrrolo[2,3-b]pyridin-2-yl]-7-methoxy-1-[(1-methyl-1H-pyrazol-3-yl)methyl]-1H-1,3-benzodiazole-5-carbonyl}-5-fluoropiperidin-3-amine] | 574 |
| Cn1cc(Cn2c(-c3cc4ccccc4n3CC3CC3)nc3cc(C(=O)N4C[C@H](N)C[C@@H](F)C4)cc(Cl)c32)cn1 [Example 517, (3R,5R)-1-{7-chloro-2-[1-(cyclopropylmethyl)-1H-indol-2-yl]-1-[(1-methyl-1H-pyrazol-4-yl)methyl]-1H-1,3-benzodiazole-5-carbonyl}-5-fluoropiperidin-3-amine] | 590 |
| COc1cc(C(=O)N2C[C@H](N)C[C@@H](F)C2)cc2nc(-c3cc4cccnc4n3CC3CC3)n(Cc3ccnn3C)c12 [Example 518, (3R,5R)-1-{2-[1-(cyclopropylmethyl)-1H-pyrrolo[2,3-b]pyridin-2-yl]-7-methoxy-1-[(1-methyl-1H-pyrazol-5-yl)methyl]-1H-1,3-benzodiazole-5-carbonyl}-5-fluoropiperidin-3-amine] | 606 |
| COc1cc(C(=O)N2CC3CCC2[C@@H]3N)cc2nc(-c3cc4ccc(C(C)O)cc4n3CC3CC3)n(CC3CN(C(=O)c4ccccc4)C3)c12 (stereo partly drawn) [Example 521, l-(2-{5-[(7R)-7-amino-2-azabicyclo[2.2.1]heptane-2-carbonyl]-1-[(1-benzoylazetidin-3-yl)methyl]-7-methoxy-1H-1,3-benzodiazol-2-yl}-1-(cyclopropylmethyl)-1H-indol-6-yl)ethan-1-ol] | 86 |
| COc1cc(C(=O)N2CC3CCC2[C@@H]3N)cc2nc(-c3cc4ccc(C(C)O)cc4n3CC3CC3)n(CC3CN(C(=O)c4ccc(C#N)cc4)C3)c12 (stereo partly drawn) [Example 523, 4-[3-({5-[(7R)-7-amino-2-azabicyclo[2.2.1]heptane-2-carbonyl]-2-[1-(cyclopropylmethyl)-6-(1-hydroxyethyl)-1H-indol-2-yl]-7-methoxy-1H-1,3-benzodiazol-1-yl}methyl)azetidine-1-carbonyl]benzonitrile] | 34 |

Continued, values first:

| IC50 [nM] | SMILES |
| --- | --- |
| 163 | COc1cc(C(=O)N2CC3CCC2[C@@H]3N)cc2nc(-c3cc4ccccc4n3CC3CC3)n(Cc3cnn(C)n3)c12 (stereo partly drawn) [Example 505, (7R)-2-{2-[1-(cyclopropylmethyl)-1H-indol-2-yl]-7-methoxy-1-[(2-methyl-2H-1,2,3-triazol-4-yl)methyl]-1H-1,3-benzodiazole-5-carbonyl}-2-azabicyclo[2.2.1]heptan-7-amine] |
| 289 | COc1cc(C(=O)N2CC3CCC2[C@@H]3N)cc2nc(-c3cc4ccccc4n3CC3CC3)n(CCc3cn[nH]c3)c12 (stereo partly drawn) [Example 508, (7R)-2-{2-[1-(cyclopropylmethyl)-1H-indol-2-yl]-7-methoxy-1-[2-(1H-pyrazol-4-yl)ethyl]-1H-1,3-benzodiazole-5-carbonyl}-2-azabicyclo[2.2.1]heptan-7-amine] |
| 300 | COc1cc(C(=O)N2CC3CCC2[C@@H]3N)cc2nc(-c3cc4cccnc4n3CC3CC3)n(Cc3nc[nH]n3)c12 (stereo partly drawn) [Example 509, (7R)-2-{2-[1-(cyclopropylmethyl)-1H-pyrrolo[2,3-b]pyridin-2-yl]-7-methoxy-1-[(1H-l,2,4-triazol-3-yl)methyl]-1H-1,3-benzodiazole-5-carbonyl}-2-azabicyclo[2.2.1]heptan-7-amine] |
| 326 | COc1cc(C(=O)N2CC3CCC2[C@@H]3N)cc2nc(-c3cc4ccccc4n3CC3CC3)n(Cc3nc[nH]n3)c12 (stereo partly drawn) [Example 510, (7R)-2-{2-[1-(cyclopropylmethyl)-1H-indol-2-yl]-7-methoxy-1-[(1H-1,2,4-triazol-3-yl)methyl]-1H-1,3-benzodiazole-5-carbonyl}-2-azabicyclo[2.2.1]heptan-7-amine] |
| 338 | COc1cc(C(=O)N2CC3CCC2[C@@H]3N)cc2nc(-c3cc4ccccc4n3CC3CC3)n(CCc3cnn(C)c3)c12 (stereo partly drawn) [Example 511, (7R)-2-{2-[1-(cyclopropylmethyl)-1H-indol-2-yl]-7-methoxy-1-[2-(1-methyl-1H-pyrazol-4-yl)ethyl]-1H-l,3-benzodiazole-5-carbonyl}-2-azabicyclo[2.2.1]heptan-7-amine] |
| 391 | COc1cc(C(=O)N2CC3CCC2[C@@H]3N)cc2nc(-c3cc4ccccc4n3C)n(Cc3cnn(C)c3)c12 (stereo partly drawn) [Example 513, (7R)-2-[7-methoxy-2-(1-methyl-1H-indol-2-yl)-1-[(1-methyl-1H-pyrazol-4-yl)methyl]-1H-1,3-benzodiazole-5-carbonyl]-2-azabicyclo[2.2.1]heptan-7-amine] |
| 409 | COc1cc(C(=O)N2CC3CCC2[C@@H]3N)cc2nc(-c3cc4ccccc4n3CC3CC3)n(Cc3cnnn3C)c12 (stereo partly drawn) [Example 514, (7R)-2-{2-[1-(cyclopropylmethyl)-1H-indol-2-yl]-7-methoxy-1-[(1-methyl-1H-1,2,3-triazol-5-yl)methyl]-1H-1,3-benzodiazole-5-carbonyl}-2-azabicyclo[2.2.1]heptan-7-amine] |
| 23 | COc1cc(C(=O)N2CC3CCC2[C@@H]3N)cc2nc(-c3cc4ccc(Br)cc4n3CC3CC3)n(Cc3cnn(C)c3)c12 (stereo partly drawn) [Example 522, (7R)-2-{2-[6-bromo-1-(cyclopropylmethyl)-1H-indol-2-yl]-7-methoxy-1-[(1-methyl-1H-pyrazol-4-yl)methyl]-1H-1,3-benzodiazole-5-carbonyl}-2-azabicyclo[2.2.1]heptan-7-amine] |
